{
  "source": "patent US11058676B2",
  "about": "“Quinolinone lysyl oxidase-like 2 inhibitors and uses thereof” (PHARMAKEA, INC., priority 2016, dated 2021)",
  "test_system": "C57Bl/6 male mice",
  "assay": "Mouse oropharyngeal bleomycin model of lung fibrosis",
  "type": "in vivo",
  "settings": "dosed prophylactically at 60 mg/kg p.o.",
  "procedure": "Example B-3: Mouse Oropharyngeal Bleomycin Model of Lung Fibrosis\nLung fibrosis is induced in C57Bl/6 male mice by administering bleomycin (0.1-4 U/kg) via oropharyngeal instillation. Mice are either pretreated with vehicle or test compound (1 day to 1 hour) orally, intraperitoneally, intravenously or subcutaneously before bleomycin installation (prophylactic dosing) or 7-14 days post bleomycin instillation (therapeutic dosing). The route and frequency of dosing are based on previously determined pharmacokinetic properties for the LOXL2 inhibitor in mouse. After bleomycin instillation animals are monitored daily for weight loss and clinical signs for 14-28 days prior to sacrifice. […] For histological examination, lung slices are stained with Masson's trichrome or Picro-Sirius red to measure cross-linked collagen as an indicator of fibrosis and an Ashcroft score of lung fibrotic and inflammatory damage determined. In addition, immunohistochemistry of fibrotic proteins such as a-smooth muscle actin can be recorded. […] After the acid hydrolysis, 25-100 μl of the supernatant is dried down, resuspended in 25 μl water and the hydroxyproline content determined by the addition of 0.5 ml Chloramine T solution (140 mg Chloramine T in 6.5 ml ddH2O+1 ml n-propanol+2.5 ml 1M sodium acetate) and incubation at room temperature for 20 min. […]",
  "data": [
    {"smiles": "NCc1cc(=O)c2cc(Br)ccc2[nH]1", "note": "[Compound 1-3, 2-(Aminomethyl)-6-bromoquinolin-4(1H)-one]", "values": [
      {"measurement": "efficacy in mouse oropharyngeal bleomycin model of lung fibrosis", "result": "efficacious"}
    ]}
  ]
}
